Values joined by “and” are separate entries in the source; they are usually repeats but may differ in a detail not shown here. Equal values may be shown once.

For experiment [1], the target named is MAPK14 (human) (UniProt Q16539). In words: Assessment of Phosphorylation of MAPK14 in HeLa Cell Line.
For experiment [2] the target is unchanged. In words: Inhibition of MAPK14 Kinase Activity.

MAPK14 (human), sequence (Q16539 whole entry, looked up): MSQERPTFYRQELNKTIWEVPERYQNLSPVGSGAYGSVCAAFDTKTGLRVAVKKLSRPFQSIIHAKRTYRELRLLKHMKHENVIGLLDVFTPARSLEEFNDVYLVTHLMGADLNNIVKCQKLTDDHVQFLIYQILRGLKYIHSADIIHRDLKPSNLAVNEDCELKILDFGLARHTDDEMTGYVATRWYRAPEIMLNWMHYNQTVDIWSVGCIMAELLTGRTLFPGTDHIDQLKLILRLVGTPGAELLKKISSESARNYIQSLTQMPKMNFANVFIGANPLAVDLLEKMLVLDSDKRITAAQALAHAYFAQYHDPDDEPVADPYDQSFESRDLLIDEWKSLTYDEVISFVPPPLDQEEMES

A word on the IC50: it is the concentration that gives 50% inhibition. The low end stands for greater potency, the high end for weaker potency. `COCC[C@@H](C)Nc1nc2ccc(-c3nc(C(C)(C)CO)[nH]c3-c3ccc(F)cc3F)nc2o1`: the IC50 at MAPK14 (human) [1] and at MAPK14 (human) [2] was less than 50 nM throughout.
As to `COCC[C@H](C)Nc1nc2ccc(-c3nc(C(C)(C)CO)[nH]c3-c3ccc(F)cc3F)nc2o1`, the half-inhibitory concentration (IC50) against MAPK14 (human) [1] was 1.6 nM and < 50 nM; at MAPK14 (human) [2], less than 50 nM.
With `COCC[C@H](C)Nc1nc2ccc(-c3nc(C4(C)COC4)[nH]c3-c3ccc(F)cc3F)nc2o1`, the IC50 on MAPK14 (human) [1] and on MAPK14 (human) [2] was less than 50 nM throughout.
For `CCOC[C@H](C)Nc1nc2ccc(-c3nc(C4(CO)CC4)[nH]c3-c3ccc(F)cc3F)nc2o1`, the 50% inhibitory concentration (IC50) against MAPK14 (human) [1] and against MAPK14 (human) [2] was less than 50 nM each time.
In the case of `COCC[C@H](C)Nc1nc2ccc(-c3nc(C4CC4)[nH]c3-c3ccc(F)cc3F)nc2o1`, the IC50 against MAPK14 (human) [1] and against MAPK14 (human) [2] was less than 50 nM each time.
